# System: Saos-2 cells
# Experiment: MTT assay, Saos-2 cells
# Format: cell-based, human
# Settings: 0.5 mM levamisole, 3 h + 24 h, n = 3
smiles,measurement,value
c1ccc([C@H]2CN3CCSC3=N2)cc1 [levamisole],"cell viability, Saos-2, levamisole alone",no obvious effect on the cell viability alone

# From publication PMC5849211 (Chemical Science, 2017)
